Test results taken from paper PMC7904827 (Scientific Reports, 2021).
Where a name gives a salt, the structure may show the parent alone.

How the values were obtained:
[1] = Post-preparation stability of the extracted analytes in autosampler (8 °C); assay type: physicochemical
Procedure: Linearity was tested within the concentration range of 0.2 – 100 μM for all compounds in DMEM, the buffer and plasma and 10-100 pmol/106cells in NVCMs (method I). For […]
Unweighted and weighted (1/x and 1/x2) linear regression was applied to obtain the best fitting calibration model.
Accuracy and precision were calculated at 4 levels (LLOQ, low, medium and high concentrations). Five quality control (QC) samples were used for all concentration levels. […]
Stability of the analytes was examined at low and high concentrations. Process s tability (n=3) in plasma was tested for 20 min at either laboratory temperature (23 °C) or on ice (4 °C, only for GK-667). Post-preparation stability was examined for 8 to 10 h in an autosampler (8 °C, n=3) for all treated matrices. […]
plasma was tested at -80 °C and the freezing cycle was repeated twice (n=3). The buffer, DMEM, NVCMs and plasma samples containing GK -667 from in vitro studies and from first intervals of pharmacokinetic study (up to 20 min) w ere treated and analyzed immediately after […]

[2] = tested on: neonatal ventricular cardiomyocytes (NVCMs); test: In vitro cardioprotection bioassay against daunorubicin toxicity (LDH release); assay type: cell-based, rat; conditions: 3 h preincubation, DAU 1.2 µM, LDH release after 48 h
Procedure: NVCMs were isolated in-house from 1- to 3-day-old Wistar rats as described previously. The use of animals and experimental protocols were approved by Charles University, Faculty of Pharmacy Animal Welfare Committee. All experiments were performed in accordance with Directive 2010/63/EU on the Protection of Animals Used for Scientific Purposes and in compliance with Animal Research: Reporting of In Vivo Experiments (ARRIVE) guidelines. Newly isolated cardiomyocytes were left for 40 h to form a monolayer of spontaneously beating cardiomyocytes in seeding medium (DMEM/F12 supplemented with 10% HS, 5% FBS, 4% PYR and 1% P/S), which was then replaced with culture medium (DMEM/F12 supplemented with 5% FBS, 4% PYR and 1% P/S). The medium was replaced again after 24 h for new culture medium.
(§1) After 3 h, DAU solution (1.2 µM) was added to the media. After another 3 h, the medium was replaced with new (drug-free) exposure medium, and the cardiomyocytes were then kept until the end of the experiment. In addition to cytoprotective properties, the toxicity of the studied agent was also examined; this experiment was performed as described above with only the DAU addition step omitted.
(§2) Forty-five hours after the last medium exchange, a sample of medium was taken from each well to assess lactate dehydrogenase (LDH) activity[27]–[29]. For details, see the Supplementary material.
(§3) 1.5 LDH activity evaluation
(§4) The control wells were treated with lysis buffer (0.1 M potassium phosphate, 1% Triton
(§5) X-100, 1 mM DTT, 2 mM EDTA; pH 7.8; 15 min; room temperature) to measure the total
(§6) cellular LDH level (sum of the activity in the control medium and the lysate). The activity of
(§7) LDH was assayed in Tris-HCl buffer (pH 8.9) containing 35 mM sodium lactate and 5 mM
(§8) NAD+. The rate of NAD+ reduction was monitored spectrophotometrically at 340 nm for 2 min.
(§9) The slope of the linear region and molar absorption coefficient e = 6.22*10 3 M/cm were used
(§10) to calculate the LDH activity, and the data were expressed as a percentage of total L DH activity. […]

[3] = tested on: neonatal ventricular cardiomyocytes (NVCMs); test: Toxicity of the prodrugs alone in NVCMs (LDH release); assay type: cell-based, rat
Procedure: as §1, §2, §3, §4, §5, §6, §7, §8, §9, §10

[4] = ICRF-193 release from GK-667 in rabbit plasma in vitro; assay type: in vitro ADME; conditions: GK-667 10 and 100 µM, 37 °C
Procedure: From all of the above described experiments, samples were taken at predefined intervals, treated and immediately analyzed. All experiments were performed in four replicates, and the results are expressed as the mean ± SD.

[5] = Solubility and stability of the GK-667 dosing solution in saline; assay type: physicochemical
Procedure: This dose of the prodrug was easily soluble in a commercially available saline solution (sodium chloride 0.9%, B-Braun, Germany) at a concentration of 5 mg/mL, which is convenient for administration to rabbits as an experimental animal model and could also be used for future pharmacodynamics experiments.
GK-667 was freshly dissolved in saline (5 mg/mL) before each administration. New Zealand White male rabbits (n = 6, ∼3.8 kg) received GK-667 (5 mg/kg) administered as a single slow (2 min) intravenous dose bolus to the ear marginal vein. Blood (∼1 mL) was sampled from veins on the contralateral ear at selected time points after drug administration (5 min to 9 h) into BD Vacutainers (BD Biosciences, Plymouth, UK) containing lithium heparin. Collected blood samples were immediately centrifuged (2 min, 3000 rpm, 4 °C), and plasma samples were harvested directly.

## C[C@H]([C@H](C)N1CC(=O)N(COC(=O)CN)C(=O)C1)N1CC(=O)N(COC(=O)CN)C(=O)C1 [GK-667, meso-2,3-bis(4-(2-aminoacetoxymethyl)-3,5-dioxopiperazin-1-yl)butane tetrahydrochloride]
[1]; extracted DMEM, 100 µM, 0 h
  percentage of initial concentration in autosampler: 100.1%
[1]; extracted DMEM, 100 µM, 8 h
  percentage of initial concentration in autosampler: 92.2%
[1]; extracted DMEM, 100 µM, 10 h
  percentage of initial concentration in autosampler: 90.2%
[1]; extracted NVCMs, 100 pmol/106 cells, 0 h
  percentage of initial concentration in autosampler: 103.3%
[1]; extracted NVCMs, 100 pmol/106 cells, 8 h
  percentage of initial concentration in autosampler: 105.2%
[1]; extracted NVCMs, 100 pmol/106 cells, 10 h
  percentage of initial concentration in autosampler: 103.3%
[1]; extracted buffer, 100 µM, 0 h
  percentage of initial concentration in autosampler: 99.5%
[1]; extracted buffer, 100 µM, 8 h
  percentage of initial concentration in autosampler: 92.9%
[1]; extracted buffer, 100 µM, 10 h
  percentage of initial concentration in autosampler: 92.8%
[1]; extracted plasma, 100 µM, 0 h
  percentage of initial concentration in autosampler: 101.5%
[1]; extracted plasma, 100 µM, 8 h
  percentage of initial concentration in autosampler: 102.1%
[1]; extracted plasma, 100 µM, 10 h
  percentage of initial concentration in autosampler: 102.7%
[2]
  lowest concentration with significant protection against DAU-induced toxicity: matched the results of ICRF-193
[3]; LDH release, without DAU
  cytotoxicity of the prodrug alone towards NVCMs: nontoxic on its own
[3]; prodrug alone 1–100 µM, NVCMs, n.s. or c in Fig. S2
  LDH release, statistical significance compared to control: n.s.
[4]
  metabolism of the prodrug in plasma: rapidly metabolized
[5]; 5 mg/mL in saline, 20 °C
  time the saline solution stays physically and chemically stable: at least 1 h
[5]; 5 mg/mL in saline, 20 °C, 1 h
  GK-667 concentration remaining in saline solution: ≥ 95 % of the initial amount
[5]; saline (sodium chloride 0.9%)
  solubility: ≥ 5000 µg/mL
